Experimental data reported in the NIST ThermoML archive (doi:10.1016/j.jct.2014.01.020).

Assay: xn = mol fraction of the nth substance listed
Details: Liquid; for mass density: Vibrating tube method; for viscosity: 101 kPa, Concentric cylinders viscometry

C1CCCCC1 [cyclohexane] + CCCCO
mass density [kg/m3]
Details | x2 = 0.1 | x2 = 0.2 | x2 = 0.3003 | x2 = 0.4005 | x2 = 0.4997 | x2 = 0.6001 | x2 = 0.6999 | x2 = 0.7998 | x2 = 0.8999
293.15 K, 100 kPa | 779.5 | 781.4 | 783.9 | 786.6 | 789.7 | 793.1 | 796.8 | 800.7 | 805
293.15 K, 1000 kPa | 780.2 | 782 | 784.5 | 787.3 | 790.3 | 793.7 | 797.4 | 801.3 | 805.6
293.15 K, 2000 kPa | 781 | 782.9 | 785.3 | 788.1 | 791.1 | 794.5 | 798.2 | 802 | 806.3
293.15 K, 5000 kPa | 783.5 | 785.3 | 787.7 | 790.5 | 793.4 | 796.9 | 800.4 | 804.3 | 808.5
293.15 K, 10000 kPa | 787.3 | 789.2 | 791.6 | 794.3 | 797.2 | 800.5 | 804 | 807.9 | 812
293.15 K, 15000 kPa | 791.1 | 792.8 | 795.2 | 797.8 | 800.8 | 804 | 807.5 | 811.3 | 815.4
293.15 K, 20000 kPa | 794.5 | 796.3 | 798.6 | 801.3 | 804.2 | 807.4 | 810.8 | 814.5 | 818.6
303.15 K, 100 kPa | 770.1 | 772 | 774.6 | 777.6 | 780.9 | 784.5 | 788.5 | 792.3 | 797.1
303.15 K, 1000 kPa | 770.8 | 772.8 | 775.3 | 778.3 | 781.6 | 785.2 | 789.1 | 793.2 | 797.8
303.15 K, 2000 kPa | 771.7 | 773.7 | 776.2 | 779.2 | 782.5 | 786 | 789.9 | 794.1 | 798.6
303.15 K, 5000 kPa | 774.4 | 776.3 | 778.8 | 781.7 | 785 | 788.5 | 792.4 | 796.4 | 800.9
303.15 K, 10000 kPa | 778.5 | 780.4 | 782.9 | 785.7 | 788.9 | 792.5 | 796.2 | 800.2 | 804.6
303.15 K, 15000 kPa | 782.4 | 784.3 | 786.7 | 789.6 | 792.7 | 796.1 | 799.8 | 803.8 | 808.1
303.15 K, 20000 kPa | 786.2 | 788 | 790.4 | 793.2 | 796.3 | 799.6 | 803.3 | 807.2 | 811.5
303.15 K, 30000 kPa | 793.2 | 795 | 797.4 | 800.2 | 803.1 | 806.4 | 810 | 813.8 | 817.9
303.15 K, 40000 kPa | 799.6 | 801.4 | 803.8 | 806.5 | 809.4 | 812.6 | 816.1 | 819.8 | 823.8
313.15 K, 100 kPa | 760.4 | 762.5 | 765.2 | 768.4 | 771.8 | 775.7 | 779.8 | 784.3 | 789.1
313.15 K, 1000 kPa | 761.3 | 763.3 | 766.1 | 769.2 | 772.7 | 776.5 | 780.6 | 785 | 789.8
313.15 K, 2000 kPa | 762.2 | 764.3 | 767 | 770.1 | 773.6 | 777.4 | 781.5 | 785.9 | 790.7
313.15 K, 5000 kPa | 765.1 | 767.1 | 769.7 | 772.8 | 776.2 | 780 | 784.1 | 788.4 | 793.1
313.15 K, 10000 kPa | 769.5 | 771.5 | 774.1 | 777.1 | 780.5 | 784.1 | 788.1 | 792.4 | 797
313.15 K, 15000 kPa | 773.6 | 775.6 | 778.2 | 781.2 | 784.4 | 788 | 791.9 | 796.1 | 800.6
313.15 K, 20000 kPa | 777.7 | 779.5 | 782.1 | 785 | 788.3 | 791.8 | 795.6 | 799.8 | 804.2
313.15 K, 30000 kPa | 785.1 | 787 | 789.4 | 792.3 | 795.4 | 798.9 | 802.6 | 806.6 | 811
313.15 K, 40000 kPa | 791.9 | 793.7 | 796.2 | 799 | 802 | 805.3 | 809 | 812.9 | 817.1
313.15 K, 50000 kPa | 798.3 | 800.1 | 802.5 | 805.1 | 808.1 | 811.4 | 815 | 818.8 | 822.9
313.15 K, 60000 kPa | 804.2 | 806 | 808.4 | 810.9 | 813.8 | 817 | 820.5 | 824.4 | 828.3
323.15 K, 100 kPa | 750.6 | 752.8 | 755.6 | 758.9 | 762.6 | 766.6 | 771.1 | 775.7 | 780.7
323.15 K, 1000 kPa | 751.6 | 753.8 | 756.6 | 759.9 | 763.5 | 767.5 | 771.9 | 776.6 | 781.6
323.15 K, 2000 kPa | 752.6 | 754.8 | 757.6 | 760.8 | 764.5 | 768.5 | 772.9 | 777.5 | 782.5
323.15 K, 5000 kPa | 755.6 | 757.8 | 760.5 | 763.7 | 767.3 | 771.3 | 775.6 | 780.1 | 785.1
323.15 K, 10000 kPa | 760.3 | 762.5 | 765.2 | 768.3 | 771.8 | 775.7 | 779.9 | 784.4 | 789.2
323.15 K, 15000 kPa | 764.8 | 766.9 | 769.6 | 772.7 | 776.1 | 779.9 | 783.9 | 788.3 | 793.1
323.15 K, 20000 kPa | 769 | 771.1 | 773.7 | 776.7 | 780.1 | 783.8 | 787.9 | 792.2 | 796.8
323.15 K, 30000 kPa | 776.9 | 779 | 781.6 | 784.4 | 787.7 | 791.2 | 795.2 | 799.3 | 803.9
323.15 K, 40000 kPa | 784.2 | 786.1 | 788.6 | 791.4 | 794.6 | 798.1 | 801.8 | 805.9 | 810.3
323.15 K, 50000 kPa | 790.8 | 792.8 | 795.1 | 797.9 | 801 | 804.4 | 808 | 812 | 816.3
323.15 K, 60000 kPa | 797.2 | 799 | 801.4 | 804.1 | 807 | 810.5 | 814 | 817.9 | 822.1
323.15 K, 70000 kPa | 802.9 | 804.6 | 806.9 | 809.6 | 812.6 | 815.8 | 819.3 | 823.2 | 827.3
323.15 K, 80000 kPa | 808.6 | 810.1 | 812.3 | 815 | 817.9 | 821.1 | 824.5 | 828.3 | 832.3
333.15 K, 100 kPa | 740.7 | 743 | 745.9 | 749.4 | 753.1 | 757.4 | 762.1 | 767 | 772.4
333.15 K, 1000 kPa | 741.7 | 744 | 746.9 | 750.3 | 754.1 | 758.4 | 763 | 767.9 | 773.3
333.15 K, 2000 kPa | 742.8 | 745.1 | 748 | 751.4 | 755.2 | 759.4 | 764 | 768.9 | 774.2
333.15 K, 5000 kPa | 746.1 | 748.3 | 751.1 | 754.5 | 758.2 | 762.4 | 766.9 | 771.8 | 777
333.15 K, 10000 kPa | 751.1 | 753.3 | 756.1 | 759.4 | 763 | 767.1 | 771.5 | 776.2 | 781.3
333.15 K, 15000 kPa | 755.9 | 758 | 760.8 | 764 | 767.5 | 771.5 | 775.8 | 780.4 | 785.4
333.15 K, 20000 kPa | 760.5 | 762.5 | 765.2 | 768.4 | 771.8 | 775.7 | 780 | 784.5 | 789.4
333.15 K, 30000 kPa | 768.9 | 770.8 | 773.4 | 776.4 | 779.8 | 783.6 | 787.6 | 792 | 796.7
333.15 K, 40000 kPa | 776.5 | 778.3 | 780.8 | 783.8 | 787 | 790.7 | 794.6 | 798.8 | 803.4
333.15 K, 50000 kPa | 783.5 | 785.2 | 787.7 | 790.6 | 793.7 | 797.2 | 801.1 | 805.2 | 809.7
333.15 K, 60000 kPa | 790 | 791.7 | 794.1 | 797 | 800.1 | 803.4 | 807.1 | 811.2 | 815.6
333.15 K, 70000 kPa | 796.1 | 797.7 | 800 | 802.9 | 805.8 | 809.2 | 812.9 | 816.8 | 821.2
333.15 K, 80000 kPa | 801.9 | 803.3 | 805.7 | 808.4 | 811.3 | 814.6 | 818.3 | 822.1 | 826.3
333.15 K, 90000 kPa | 807.3 | 808.7 | 810.9 | 813.7 | 816.5 | 819.8 | 823.3 | 827.2 | 831.3
333.15 K, 100000 kPa | 812.4 | 813.8 | 816 | 818.7 | 821.5 | 824.7 | 828.1 | 831.9 | 836

viscosity [mPa·s]
Details | x2 = 0 | x2 = 0.1073 | x2 = 0.1991 | x2 = 0.2998 | x2 = 0.4006 | x2 = 0.4997 | x2 = 0.6001 | x2 = 0.7001 | x2 = 0.7997 | x2 = 0.8996
293.15 K | 0.98 | 0.997 | 1.042 | 1.11 | 1.277 | 1.462 | 1.69 | 1.95 | 2.243 | 2.576
303.15 K | 0.824 | 0.837 | 0.87 | 0.924 | 1.038 | 1.17 | 1.337 | 1.528 | 1.747 | 1.998
313.15 K | 0.701 | 0.708 | 0.731 | 0.772 | 0.855 | 0.95 | 1.074 | 1.218 | 1.382 | 1.573
323.15 K | 0.593 | 0.596 | 0.613 | 0.659 | 0.704 | 0.776 | 0.868 | 0.99 | 1.106 | 1.255
333.15 K | 0.522 | 0.522 | 0.535 | 0.565 | 0.605 | 0.657 | 0.723 | 0.8 | 0.889 | 1.011
